From patent EP0048614B1, “1-N-acylated and 1-N-alkylated derivatives of 4-0-substituted -2-deoxystreptamine aminoglycosides” (ELI LILLY AND COMPANY, priority 1980, dated 1982)
≈ marks a conversion by molar mass, not a printed value.

Key:
[1] = system: Staphylococcus aureus 3055; experiment: Subcutaneous therapy of experimental bacterial infection in mice (ED50); format: in vivo; conditions: Staphylococcus aureus, 3055, sc; mg/kg × 2 subcutaneous doses at 1 and 5 hours post infection; mice challenged with 68.1 LD50's; read-out: Effective Dose (ED50)
Description: Table II illustrates the effective dose (ED50, the effective dose to protect 50 percent of the test animals) for representative compounds of this invention against an experimental bacterial infection in mice.
The ED50 values were determined as described by W. E. Wick et al., Journal of Bacteriology, 81 [No. 2], 233-235 (1961).

Proteus rettgeri C24 = experiment: MIC, standard agar dilution test; format: cell-based; conditions: Providencia rettgeri; Proteus rettgeri C24; agar dilution; read-out: Minimum Inhibitory Concentration
Description: (§1) The antibacterial activity of the deprotected compounds of this invention is illustrated by the following in vitro and in vivo test data obtained with representative compounds. In Table I, the minimum inhibitory concentration (MIC) for representative compounds against a wide range of gram-positive and gram-negative bacteria is presented. The MIC values were obtained by the standard agar dilution test.

[2] = system: Staphylococcus epidermidis EPI1; experiment: MIC, standard agar dilution test; format: cell-based; conditions: Staphylococcus epidermidis, EPI1; read-out: Minimum Inhibitory Concentration
Description: as §1

Proteus inconstans PR33 = experiment: MIC, standard agar dilution test; format: cell-based; conditions: Providencia alcalifaciens; Proteus inconstans PR33; agar dilution; read-out: Minimum Inhibitory Concentration
Description: as §1

[3] = system: Staphylococcus aureus X1.1; experiment: MIC, standard agar dilution test; format: cell-based; conditions: Staphylococcus aureus X1.1; agar dilution; read-out: Minimum Inhibitory Concentration
Description: as §1

[4] = system: Enterobacter aerogenes X68; experiment: MIC, standard agar dilution test; format: cell-based; conditions: Klebsiella aerogenes, Enterobacter aerogenes X68, read-out: Minimum Inhibitory Concentration
Description: as §1

[5] = system: Enterobacter cloacae 265A; experiment: MIC, standard agar dilution test; format: cell-based; conditions: Enterobacter cloacae 265A; agar dilution; read-out: Minimum Inhibitory Concentration
Description: as §1

Escherichia coli EC14 = experiment: MIC, standard agar dilution test; format: cell-based; conditions: Escherichia coli EC14; agar dilution; read-out: Minimum Inhibitory Concentration
Description: as §1

Escherichia coli N10 = experiment: MIC, standard agar dilution test; format: cell-based; conditions: Escherichia coli, N10, Escherichia coli N10; agar dilution; read-out: Minimum Inhibitory Concentration
Description: as §1

Proteus morganii PR15 = experiment: MIC, standard agar dilution test; format: cell-based; conditions: Morganella morganii; Proteus morganii PR15; agar dilution; read-out: Minimum Inhibitory Concentration
Description: as §1

[6] = system: Streptococcus pyogenes C203; experiment: MIC, standard agar dilution test; format: cell-based; conditions: Streptococcus pyogenes C203; agar dilution; read-out: Minimum Inhibitory Concentration
Description: as §1

[7] = system: Salmonella typhimurium 1335; experiment: MIC, standard agar dilution test; format: cell-based; conditions: Salmonella enterica; Salmonella typhimurium 1335; agar dilution; read-out: Minimum Inhibitory Concentration
Description: as §1

[8] = system: Klebsiella pneumoniae KAE; experiment: MIC, standard agar dilution test; format: cell-based; conditions: Klebsiella pneumoniae KAE; agar dilution; read-out: Minimum Inhibitory Concentration
Description: as §1

Hemophilus influenzae 76 = experiment: MIC, standard agar dilution test; format: cell-based; conditions: Haemophilus influenzae, Hemophilus influenzae 76, read-out: Minimum Inhibitory Concentration
Description: as §1

[9] = system: Streptococcus group D X66; experiment: MIC, standard agar dilution test; format: cell-based; conditions: DX66; Streptococcus group D X66; agar dilution; read-out: Minimum Inhibitory Concentration
Description: as §1

Shigella sonnei N9 = experiment: MIC, standard agar dilution test; format: cell-based; conditions: read-out: Minimum Inhibitory Concentration
Description: as §1

Enterobacter cloacae EB5 = experiment: MIC, standard agar dilution test; format: cell-based; conditions: Enterobacter cloacae EB5; agar dilution; read-out: Minimum Inhibitory Concentration
Description: as §1

[10] = system: Streptococcus pneumoniae Park I; experiment: MIC, standard agar dilution test; format: cell-based; conditions: Streptococcus pneumoniae; read-out: Minimum Inhibitory Concentration
Description: as §1

[11] = system: Staphylococcus aureus S13E; experiment: MIC, standard agar dilution test; format: cell-based; conditions: read-out: Minimum Inhibitory Concentration
Description: as §1

Serratia marcescens X99 = experiment: MIC, standard agar dilution test; format: cell-based; conditions: Serratia marcescens X99, read-out: Minimum Inhibitory Concentration
Description: as §1

[12] = system: Staphylococcus aureus V41; experiment: MIC, standard agar dilution test; format: cell-based; conditions: Staphylococcus aureus V41; agar dilution; read-out: Minimum Inhibitory Concentration
Description: as §1

Proteus rettgeri PR7 = experiment: MIC, standard agar dilution test; format: cell-based; conditions: Providencia rettgeri, Proteus rettgeri PR7, read-out: Minimum Inhibitory Concentration
Description: as §1

[13] = system: Streptococcus group D 9960; experiment: MIC, standard agar dilution test; format: cell-based; conditions: D9960; Streptococcus group D 9960; agar dilution; read-out: Minimum Inhibitory Concentration
Description: as §1

[14] = system: Enterobacter aerogenes EB17; experiment: MIC, standard agar dilution test; format: cell-based; conditions: Klebsiella aerogenes; Enterobacter aerogenes EB17; agar dilution; read-out: Minimum Inhibitory Concentration
Description: as §1

[15] = system: Staphylococcus aureus X400; experiment: MIC, standard agar dilution test; format: cell-based; conditions: Staphylococcus aureus X400, read-out: Minimum Inhibitory Concentration
Description: as §1

[16] = system: Staphylococcus epidermidis EPI2; experiment: MIC, standard agar dilution test; format: cell-based; conditions: Staphylococcus epidermidis EPI2; agar dilution; read-out: Minimum Inhibitory Concentration
Description: as §1

[17] = system: Pseudomonas aeruginosa Ps18; experiment: MIC, standard agar dilution test; format: cell-based; conditions: Pseudomonas aeruginosa Ps18; agar dilution; read-out: Minimum Inhibitory Concentration
Description: as §1

Escherichia coli TEM = experiment: MIC, standard agar dilution test; format: cell-based; conditions: read-out: Minimum Inhibitory Concentration
Description: as §1

[18] = system: Salmonella heidelberg X514; experiment: MIC, standard agar dilution test; format: cell-based; conditions: Salmonella enterica; Salmonella heidelberg X514; agar dilution; read-out: Minimum Inhibitory Concentration
Description: as §1

[19] = system: Pseudomonas aeruginosa X528; experiment: MIC, standard agar dilution test; format: cell-based; conditions: Pseudomonas aeruginosa X528; agar dilution; read-out: Minimum Inhibitory Concentration
Description: as §1

[20] = system: Citrobacter freundii CF17; experiment: MIC, standard agar dilution test; format: cell-based; conditions: Citrobacter freundii CF17; agar dilution; read-out: Minimum Inhibitory Concentration
Description: as §1

Serratia marcescens SE3 = experiment: MIC, standard agar dilution test; format: cell-based; conditions: Serratia marcescens SE3; agar dilution; read-out: Minimum Inhibitory Concentration
Description: as §1

[21] = system: Klebsiella pneumoniae X26; experiment: MIC, standard agar dilution test; format: cell-based; conditions: Klebsiella pneumoniae X26; agar dilution; read-out: Minimum Inhibitory Concentration
Description: as §1

[22] = system: Bordetella bronchiseptica 16; experiment: MIC, standard agar dilution test; format: cell-based; conditions: Bordetella bronchiseptica 16; agar dilution; read-out: Minimum Inhibitory Concentration
Description: as §1

[23] = system: Enterobacter aerogenes C32; experiment: MIC, standard agar dilution test; format: cell-based; conditions: Klebsiella aerogenes; Enterobacter aerogenes C32; agar dilution; read-out: Minimum Inhibitory Concentration
Description: as §1

[24] = system: Pseudomonas aeruginosa X239; experiment: MIC, standard agar dilution test; format: cell-based; conditions: Pseudomonas aeruginosa X239; agar dilution; read-out: Minimum Inhibitory Concentration
Description: as §1

[25] = system: Hemophilus influenzae C.L.; experiment: MIC, standard agar dilution test; format: cell-based; conditions: Haemophilus influenzae, Hemophilus influenzae C.L., read-out: Minimum Inhibitory Concentration
Description: as §1

Escherichia coli X563 = experiment: Standard disc-plate method, zone of inhibition against apramycin-resistant strain; format: cell-based; conditions: apramycin-resistant E. coli X563, one value for each of two test runs per compound
Description: Table III, shown below, illustrates the in vitro activity of 1-N-(S-y-amino-a-hydroxybutyryl)apramycin, 1-N-(RS-y-amino-a-hydroxybutyryl)apramycin, and 1-N-(S-y-amino-a-hydroxybutyryl)nebramine against an apramycin resistant strain of E. coli. The results below were obtained using the standard disc-plate method. The numerical values are the diameters in millimeters of the zones of inhibition observed against this bacterium. Compounds substituted with the y-amino-a-hydroxybutyryl and analogous side chains are useful in treating infections caused by apramycin resistant bacteria such as the one above.
The test organism (E. coli X563) used in the experiments summarized in Table III is resistant to apramycin due to a 3-N-acetyltransferase which enzymatically inactivates apramycin.

`CCNC1CC(N)C(OC2OC3C(CC2N)OC(OC2OC(CO)C(N)C(O)C2O)C(NC)C3O)C(O)C1O` (stereo not drawn) [Test Compound 4, 1-N-ethylapramycin] was tested, and the ED50 [1] was 4.5 mg/kg, the MIC (Proteus rettgeri C24) was 64 µg/mL (≈ 113 µM) and the MIC [2] was 8 µg/mL (≈ 14.1 µM). For the same compound, the MIC (Proteus inconstans PR33) was 128 µg/mL (≈ 225 µM), the MIC [3] was 8 µg/mL (≈ 14.1 µM) and the MIC [4] was 16 µg/mL (≈ 28.2 µM). It also gave an MIC [5] of 32 µg/mL (≈ 56.4 µM), an MIC (Escherichia coli EC14) of 32 µg/mL (≈ 56.4 µM) and an MIC (Escherichia coli N10) of 16 µg/mL (≈ 28.2 µM). It also gave an MIC (Proteus morganii PR15) of 32 µg/mL (≈ 56.4 µM), an MIC [6] of 16 µg/mL (≈ 28.2 µM) and an MIC [7] of 32 µg/mL (≈ 56.4 µM). It also gave an MIC [8] of 16 µg/mL (≈ 28.2 µM), an MIC (Hemophilus influenzae 76) of 16 µg/mL (≈ 28.2 µM) and an MIC [9] greater than 128 µg/mL. It also gave an MIC (Shigella sonnei N9) of 16 µg/mL (≈ 28.2 µM), an MIC (Enterobacter cloacae EB5) of 32 µg/mL (≈ 56.4 µM) and an MIC [10] of 16 µg/mL (≈ 28.2 µM). For the same compound, the MIC [11] was 8 µg/mL (≈ 14.1 µM), the MIC (Serratia marcescens X99) was 64 µg/mL (≈ 113 µM) and the MIC [12] was 8 µg/mL (≈ 14.1 µM). The MIC (Proteus rettgeri PR7) was 8 µg/mL (≈ 14.1 µM), the MIC [13] was greater than 128 µg/mL and the MIC [14] was 16 µg/mL (≈ 28.2 µM). The MIC [15] was 16 µg/mL (≈ 28.2 µM), the MIC [16] was 4 µg/mL (≈ 7.05 µM) and the MIC [17] was 32 µg/mL (≈ 56.4 µM). It also gave an MIC (Escherichia coli TEM) of 8 µg/mL (≈ 14.1 µM), an MIC [18] of 32 µg/mL (≈ 56.4 µM) and an MIC [19] of 16 µg/mL (≈ 28.2 µM). The MIC [20] was 16 µg/mL (≈ 28.2 µM), the MIC (Serratia marcescens SE3) was greater than 128 µg/mL and the MIC [21] was 8 µg/mL (≈ 14.1 µM). The MIC [22] was 64 µg/mL (≈ 113 µM), the MIC [23] was 8 µg/mL (≈ 14.1 µM) and the MIC [24] was 8 µg/mL (≈ 14.1 µM). For the same compound, the MIC [25] was 16 µg/mL (≈ 28.2 µM), the “Zone of Inhibition (diameter in mm)” value (Escherichia coli X563; 15 mcg/disc, listed as 5) was 12.1 mm and the zone of inhibition at 15 µg/disc (Escherichia coli X563; Escherichia coli, X563, read-out: Zone of Inhibition (diameter in mm), 15 mcg/disc) was 11.3 mm.
